Data from ChEMBL document CHEMBL5154845, “Dual-acting antitumor agents targeting the A2A adenosine receptor and histone deacetylases: Design and synthesis of 4-(furan-2-yl)-1H-pyrazolo[3,4-d]pyrimidin-6-amine derivatives” (Eur J Med Chem, 2022).
Activity calls are given as the source filed them. No cut-off for these calls is given here.

What was measured:
[1] = tested on: MC-38; assay: Antiproliferative activity against mouse MC38 cells after 72 hrs by CCK-8 assay; format: functional
[2] = biological target: Histone deacetylase 1 (Homo sapiens, UniProt Q13547); assay: Inhibition of HDAC1 (unknown origin) using trypsin and LGK(Ac)-AMC as substrates incubated for 1 hr and measured by fluorescence assay
Sequence of Histone deacetylase 1 (Q13547 whole entry): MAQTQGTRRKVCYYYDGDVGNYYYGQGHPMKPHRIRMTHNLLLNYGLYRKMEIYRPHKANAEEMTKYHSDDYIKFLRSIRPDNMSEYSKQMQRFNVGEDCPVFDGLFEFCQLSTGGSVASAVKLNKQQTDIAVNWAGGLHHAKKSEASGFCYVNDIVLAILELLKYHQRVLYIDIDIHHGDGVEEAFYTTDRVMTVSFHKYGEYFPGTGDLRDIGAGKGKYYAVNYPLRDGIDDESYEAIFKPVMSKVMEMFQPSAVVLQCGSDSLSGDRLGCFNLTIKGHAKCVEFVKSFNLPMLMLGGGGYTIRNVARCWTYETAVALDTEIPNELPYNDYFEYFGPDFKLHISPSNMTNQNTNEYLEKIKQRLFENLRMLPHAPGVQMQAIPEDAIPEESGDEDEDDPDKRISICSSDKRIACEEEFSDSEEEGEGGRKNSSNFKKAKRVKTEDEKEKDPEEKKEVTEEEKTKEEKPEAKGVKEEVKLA

[3] = biological target: Adenosine receptor A2a (Homo sapiens, UniProt P29274); assay: Displacement of [3H][…] from human A2AAR incubated for 60 mins by scintillation counter analysis
Sequence of Adenosine receptor A2a (P29274 whole entry): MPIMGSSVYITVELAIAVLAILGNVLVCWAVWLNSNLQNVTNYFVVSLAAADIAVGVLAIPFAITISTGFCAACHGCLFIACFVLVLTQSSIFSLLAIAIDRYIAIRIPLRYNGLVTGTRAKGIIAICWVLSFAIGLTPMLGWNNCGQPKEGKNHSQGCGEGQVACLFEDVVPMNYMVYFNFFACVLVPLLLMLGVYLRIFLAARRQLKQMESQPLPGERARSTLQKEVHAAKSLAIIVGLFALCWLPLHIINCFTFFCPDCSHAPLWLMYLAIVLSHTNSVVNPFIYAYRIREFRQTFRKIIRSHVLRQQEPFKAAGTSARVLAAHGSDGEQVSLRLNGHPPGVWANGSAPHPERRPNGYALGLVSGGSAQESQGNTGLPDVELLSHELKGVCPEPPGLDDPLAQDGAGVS

[4] = tested on: CT26; assay: Antiproliferative activity against mouse CT26 cells after 72 hrs by CCK-8 assay; format: functional
[5] = biological target: T1, Adenosine receptor A2b (Homo sapiens, UniProt P29275); assay: Displacement of [3H]DPCPX from human A2BAR incubated for 60 mins by scintillation counter analysis
T1 sequence (P29275 whole entry): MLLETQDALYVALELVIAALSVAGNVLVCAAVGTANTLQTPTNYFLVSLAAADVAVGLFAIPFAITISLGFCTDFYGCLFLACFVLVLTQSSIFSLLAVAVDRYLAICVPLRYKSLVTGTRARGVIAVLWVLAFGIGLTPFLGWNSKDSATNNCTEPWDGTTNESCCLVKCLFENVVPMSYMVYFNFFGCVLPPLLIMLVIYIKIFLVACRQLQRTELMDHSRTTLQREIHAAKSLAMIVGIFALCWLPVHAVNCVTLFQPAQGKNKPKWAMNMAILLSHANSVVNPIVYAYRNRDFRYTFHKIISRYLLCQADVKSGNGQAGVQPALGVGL

[6] = biological target: Histone deacetylase 3 (Homo sapiens, UniProt O15379); assay: Inhibition of HDAC3 (unknown origin) using trypsin and LGK(Ac)-AMC as substrates incubated for 1 hr and measured by fluorescence assay
Sequence of Histone deacetylase 3 (O15379 whole entry): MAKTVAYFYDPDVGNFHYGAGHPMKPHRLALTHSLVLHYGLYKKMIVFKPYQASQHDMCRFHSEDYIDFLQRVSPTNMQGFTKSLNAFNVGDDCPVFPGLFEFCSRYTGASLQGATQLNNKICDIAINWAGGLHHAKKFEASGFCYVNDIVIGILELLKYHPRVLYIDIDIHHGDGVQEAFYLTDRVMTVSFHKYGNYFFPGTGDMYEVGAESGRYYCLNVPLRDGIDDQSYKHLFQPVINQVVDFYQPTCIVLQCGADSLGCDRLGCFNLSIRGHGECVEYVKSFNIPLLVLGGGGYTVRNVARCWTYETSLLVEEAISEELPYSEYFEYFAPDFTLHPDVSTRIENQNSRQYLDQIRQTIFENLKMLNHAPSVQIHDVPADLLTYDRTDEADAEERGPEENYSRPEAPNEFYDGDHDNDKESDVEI

[7] = biological target: T2, Adenosine receptor A1 (Homo sapiens, UniProt P30542); assay: Displacement of [3H]DPCPX from human A1AR incubated for 60 mins by scintillation counter analysis
T2 sequence (P30542 whole entry): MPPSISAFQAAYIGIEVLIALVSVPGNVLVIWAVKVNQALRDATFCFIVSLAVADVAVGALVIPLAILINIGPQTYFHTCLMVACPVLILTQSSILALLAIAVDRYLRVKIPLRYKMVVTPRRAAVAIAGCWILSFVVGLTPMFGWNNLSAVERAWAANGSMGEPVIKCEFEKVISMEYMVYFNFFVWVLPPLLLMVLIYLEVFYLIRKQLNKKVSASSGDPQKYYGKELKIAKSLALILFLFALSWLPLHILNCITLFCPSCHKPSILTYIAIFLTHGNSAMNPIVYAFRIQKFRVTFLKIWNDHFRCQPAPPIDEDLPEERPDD

[8] = biological target: T3, Adenosine receptor A3 (Homo sapiens, UniProt P0DMS8); assay: Displacement of [3H]HEMADO from human A3AR incubated for 60 mins by scintillation counter analysis
T3 sequence (P0DMS8 whole entry): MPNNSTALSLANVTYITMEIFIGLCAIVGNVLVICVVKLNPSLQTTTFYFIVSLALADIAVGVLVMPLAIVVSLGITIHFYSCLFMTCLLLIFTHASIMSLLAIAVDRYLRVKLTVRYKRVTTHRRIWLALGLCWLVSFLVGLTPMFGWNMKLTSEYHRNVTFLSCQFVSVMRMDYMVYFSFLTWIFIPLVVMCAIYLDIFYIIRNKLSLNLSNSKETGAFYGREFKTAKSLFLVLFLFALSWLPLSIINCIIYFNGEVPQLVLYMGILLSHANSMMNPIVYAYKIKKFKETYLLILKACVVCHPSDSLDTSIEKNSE

[9] = biological target: T4, Protein deacetylase HDAC6 (Homo sapiens, UniProt Q9UBN7); assay: Inhibition of HDAC6 (unknown origin) using trypsin and LGK(Ac)-AMC as substrates incubated for 1 hr and measured by fluorescence assay
T4 sequence (Q9UBN7 whole entry): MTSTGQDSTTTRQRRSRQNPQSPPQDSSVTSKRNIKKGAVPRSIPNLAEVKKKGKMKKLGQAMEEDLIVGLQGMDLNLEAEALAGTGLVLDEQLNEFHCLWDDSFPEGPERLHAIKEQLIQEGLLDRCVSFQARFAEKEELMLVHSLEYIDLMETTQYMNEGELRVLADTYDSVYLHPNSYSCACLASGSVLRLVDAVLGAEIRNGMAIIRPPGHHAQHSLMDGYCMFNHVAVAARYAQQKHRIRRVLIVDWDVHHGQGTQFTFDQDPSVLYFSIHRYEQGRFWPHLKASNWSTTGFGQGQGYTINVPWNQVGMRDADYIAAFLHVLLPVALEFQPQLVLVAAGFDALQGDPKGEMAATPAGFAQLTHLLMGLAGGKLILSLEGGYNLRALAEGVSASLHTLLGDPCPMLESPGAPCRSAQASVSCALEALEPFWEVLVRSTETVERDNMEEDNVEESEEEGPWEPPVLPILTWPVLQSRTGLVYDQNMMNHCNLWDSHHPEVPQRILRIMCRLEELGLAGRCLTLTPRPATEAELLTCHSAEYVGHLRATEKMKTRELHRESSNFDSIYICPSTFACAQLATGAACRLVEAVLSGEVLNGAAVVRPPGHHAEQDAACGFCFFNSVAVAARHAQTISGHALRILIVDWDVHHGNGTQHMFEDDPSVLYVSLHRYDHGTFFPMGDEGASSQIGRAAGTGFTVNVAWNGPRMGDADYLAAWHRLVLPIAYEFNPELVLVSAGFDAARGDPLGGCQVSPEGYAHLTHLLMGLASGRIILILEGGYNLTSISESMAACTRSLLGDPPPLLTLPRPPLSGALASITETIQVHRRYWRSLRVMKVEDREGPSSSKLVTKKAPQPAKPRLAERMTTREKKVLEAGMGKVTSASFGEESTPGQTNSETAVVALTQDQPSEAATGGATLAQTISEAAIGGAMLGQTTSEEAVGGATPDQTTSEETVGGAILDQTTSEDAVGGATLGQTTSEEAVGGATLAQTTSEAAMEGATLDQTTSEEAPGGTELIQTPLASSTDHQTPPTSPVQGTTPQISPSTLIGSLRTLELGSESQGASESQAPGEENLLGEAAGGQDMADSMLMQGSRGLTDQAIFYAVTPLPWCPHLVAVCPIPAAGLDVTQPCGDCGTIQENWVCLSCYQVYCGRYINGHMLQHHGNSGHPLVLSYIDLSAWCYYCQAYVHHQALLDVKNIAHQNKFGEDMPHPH

[10] = biological target: T5, Histone deacetylase 8 (Homo sapiens, UniProt Q9BY41); assay: Inhibition of HDAC8 (unknown origin) using trypsin and LGK(Ac)-AMC as substrates incubated for 1 hr and measured by fluorescence assay
T5 sequence (Q9BY41 whole entry): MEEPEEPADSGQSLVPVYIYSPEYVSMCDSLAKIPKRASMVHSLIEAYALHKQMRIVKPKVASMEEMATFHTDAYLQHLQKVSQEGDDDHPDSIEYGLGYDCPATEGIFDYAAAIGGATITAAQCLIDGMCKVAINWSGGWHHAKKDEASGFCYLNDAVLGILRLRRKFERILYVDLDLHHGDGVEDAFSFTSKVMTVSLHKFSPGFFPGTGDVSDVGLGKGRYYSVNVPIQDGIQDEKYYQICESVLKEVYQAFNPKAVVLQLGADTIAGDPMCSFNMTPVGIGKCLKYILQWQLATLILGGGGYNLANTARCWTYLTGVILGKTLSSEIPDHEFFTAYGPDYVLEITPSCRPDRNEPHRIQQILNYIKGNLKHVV

[11] = biological target: Histone deacetylase 2 (Homo sapiens, UniProt Q92769); assay: Inhibition of HDAC2 (unknown origin) using trypsin and LGK(Ac)-AMC as substrates incubated for 1 hr and measured by fluorescence assay
Sequence of Histone deacetylase 2 (Q92769 whole entry): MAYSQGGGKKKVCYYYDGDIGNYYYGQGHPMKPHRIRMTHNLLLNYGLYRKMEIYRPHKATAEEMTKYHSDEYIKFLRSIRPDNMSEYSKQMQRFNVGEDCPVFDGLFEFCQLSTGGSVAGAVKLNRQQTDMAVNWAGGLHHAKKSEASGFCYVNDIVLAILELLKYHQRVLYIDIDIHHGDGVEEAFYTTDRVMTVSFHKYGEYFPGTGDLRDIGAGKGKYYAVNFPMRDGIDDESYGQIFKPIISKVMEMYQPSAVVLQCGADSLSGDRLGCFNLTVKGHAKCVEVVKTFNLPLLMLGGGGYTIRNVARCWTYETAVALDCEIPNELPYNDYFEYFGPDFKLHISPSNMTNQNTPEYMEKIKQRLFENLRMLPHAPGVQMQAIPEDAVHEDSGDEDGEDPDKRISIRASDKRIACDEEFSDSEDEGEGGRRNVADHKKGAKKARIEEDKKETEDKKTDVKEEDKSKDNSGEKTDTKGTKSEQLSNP

[12] = tested on: MC38; assay: Inhibition of HDAC in mouse MC38 cells assessed as increase in H3 acetylation at 0.1 to 10 uM measured by western blot analysis; format: cell-based; details: dose 0.1-10 µM
[13] = tested on: MC38; assay: Inhibition of HDAC in mouse MC38 cells assessed as increase in H4 acetylation at 0.1 to 10 uM measured by western blot analysis; format: cell-based; details: dose 0.1-10 µM
[14] = Half-life in male ICR mouse at 20 mg/kg, po measured up to 24 hrs by LC-MS/MS analysis; format: ADME, organism-based; details: in vivo
[15] = Mean residence time in male ICR mouse at 20 mg/kg, po measured up to 24 hrs by LC-MS/MS analysis; format: ADME, organism-based; details: in vivo
[16] = Cmax in male ICR mouse at 20 mg/kg, po measured up to 24 hrs by LC-MS/MS analysis; format: ADME, organism-based; parameters: time < 24 hrs, dose 20 mg/kg, route po; details: in vivo
[17] = AUC (0 to t) in male ICR mouse at 20 mg/kg, po measured up to 24 hrs by LC-MS/MS analysis; format: ADME, organism-based; parameters: time < 24 hrs, dose 20 mg/kg, route po; details: in vivo
[18] = Tmax in male ICR mouse at 20 mg/kg, po measured up to 24 hrs by LC-MS/MS analysis; format: ADME, organism-based; details: in vivo
[19] = Elimination rate constant in male ICR mouse at 20 mg/kg, po measured up to 24 hrs by LC-MS/MS analysis; format: ADME, organism-based; details: in vivo

Row | Structure (SMILES) | IC50 [2] [nM] | Ki [3] [nM] | GI50 [4] [nM] | GI50 [1] [nM] | further results
1 | Nc1nc(-c2ccco2)c2cnn(Cc3cccc(OCCCCCC(=O)NO)c3)c2n1 | 86 | 10.9 | 9990 | 9820 | –
2 | Nc1nc(-c2ccco2)c2cnn(CCCc3ccc(C(=O)Nc4ccccc4N)cc3)c2n1 | 186 | 140 | 7560 | 6960 | –
3 | Nc1nc(-c2ccco2)c2cnn(Cc3cccc(OCCCCCCC(=O)NO)c3)c2n1 | 18.5 | 10.3 | 12600 | 12200 | Ki [5]: 513 nM; IC50 [6]: 13.6 nM; Ki [7]: 106 nM; Ki [8]: > 10000 nM; IC50 [9]: 2.1 nM; IC50 [10]: 1410 nM; IC50 [11]: 16 nM; inhibition [12]: Active; inhibition [13]: Active
4 | Nc1nc(-c2ccco2)c2cnn(Cc3cccc(OCCCCCCC(=O)NO)n3)c2n1 | 23 | 14.7 | 5800 | 5060 | half-life [14]: 1.48 h; MRT [15]: 1.16 h; Cmax [16]: 608 ng/mL; AUC(0-t) at 24 h [17]: 302 ng·h/mL; Ki [5]: 2500 nM; Tmax [18]: 0.25 h; Ki [7]: 641 nM; Ki [8]: > 10000 nM; k el at 24 h [19]: 0.000131 s⁻¹
5 | Cc1ccc(-c2nc(N)nc3c2cnn3Cc2cccc(OCCCCCCC(=O)NO)n2)o1 | 29.5 | 159 | 7680 | 6410 | –
6 | Cc1ccc(-c2nc(N)nc3c2cnn3Cc2ccc(N)c(OCCCCCCC(=O)NO)c2)o1 | 45 | 74.3 | 19600 | 26700 | –
7 | Nc1nc(-c2ccco2)c2cnn(Cc3cccc(/C=C/C(=O)NO)c3)c2n1 | 8.4 | 130 | 2320 | 1910 | half-life [14]: 7.53 h; MRT [15]: 9.54 h; Cmax [16]: 122 ng/mL; AUC(0-t) at 24 h [17]: 182 ng·h/mL; Tmax [18]: 0.25 h; k el at 24 h [19]: 2.69e-05 s⁻¹

Continued, in another order:

Row | IC50 [2] [nM] | Ki [3] [nM] | GI50 [4] [nM] | Structure (SMILES) | GI50 [1] [nM] | further results
8 | 2.4 | 301 | 33000 | Nc1nc(-c2ccco2)c2cnn(CCCCCCC(=O)NO)c2n1 | 350 | –
9 | 95 | 12.3 | 18900 | Cc1ccc(-c2nc(N)nc3c2cnn3Cc2cccc(OCCCCCC(=O)NO)c2)o1 | 23200 | –
10 | 42.5 | 52.8 | 13200 | Cc1ccc(-c2nc(N)nc3c2cnn3Cc2cccc(OCCCCCCC(=O)NO)c2)o1 | 11300 | –
11 | 190 | 147 | > 30000 | Nc1nc(-c2ccco2)c2cnn(CCCOc3ccc(C(=O)Nc4ccccc4N)cc3)c2n1 | > 30000 | –
12 | 37 | 15 | 22800 | Nc1nc(-c2ccco2)c2cnn(Cc3ccc(N)c(OCCCCCCC(=O)NO)c3)c2n1 | 28200 | –
13 | 126 | 125 | 9130 | Cc1ccc(-c2nc(N)nc3c2cnn3CCc2ccc(C(=O)Nc3ccccc3N)cc2)o1 | 7970 | –
14 | – | – | 1770 | Nc1ccccc1NC(=O)c1ccc(CNc2nccc(-c3cccnc3)n2)cc1 [MOCETINOSTAT] | 1640 | –
15 | – | – | 2350 | O=C(CCCCCCC(=O)Nc1ccccc1)NO [VORINOSTAT] | 2740 | –
